Test results reported in ChEMBL document CHEMBL1201862, “PubChem BioAssay data set” (2004).
The source made the active and inactive calls.

What was measured:
Cytochrome P450 3A4 = Cytochrome P450 3A4 (Homo sapiens, UniProt P08684);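 further: CYP3A4 tested as one member of a cytochrome P450 panel screen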
[1] = target: T1, Microphthalmia-associated transcription factor (Homo sapiens, UniProt O75030); experiment: TRPM1 promoter luciferase signal decrease, dose response, MITF inhibitor project, cell-based, SK-MEL-5, cherry-picked, set 3 (AID 493073); format: functional
T1 sequence (O75030 whole entry): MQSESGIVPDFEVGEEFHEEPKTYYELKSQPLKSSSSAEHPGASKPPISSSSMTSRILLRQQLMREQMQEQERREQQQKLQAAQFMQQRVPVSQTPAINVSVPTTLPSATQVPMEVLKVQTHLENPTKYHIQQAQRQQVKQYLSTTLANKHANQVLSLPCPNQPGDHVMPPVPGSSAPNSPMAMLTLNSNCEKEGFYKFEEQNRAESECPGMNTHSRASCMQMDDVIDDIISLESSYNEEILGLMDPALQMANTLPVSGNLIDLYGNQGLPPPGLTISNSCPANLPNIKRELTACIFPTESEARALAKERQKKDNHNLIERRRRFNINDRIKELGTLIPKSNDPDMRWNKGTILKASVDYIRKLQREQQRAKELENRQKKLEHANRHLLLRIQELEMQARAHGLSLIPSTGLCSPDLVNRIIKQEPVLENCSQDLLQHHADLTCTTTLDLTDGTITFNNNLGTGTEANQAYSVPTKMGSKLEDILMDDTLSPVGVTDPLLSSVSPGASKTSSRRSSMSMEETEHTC

Cytochrome P450 2C9 = Cytochrome P450 2C9 (Homo sapiens, UniProt P11712)
H9c2 = experiment: cells; format: functional, cell-based; settings: Rattus norvegicus, H9c2, Myocardium
Vero = experiment: cells; format: functional; settings: Chlorocebus sabaeus
[2] = inhibitors of firefly luciferase expression or activity, dose response, H4 neuroglioma cells, luminescence (AID 1990); format: functional, cell-based
[3] = Luminescence Cell-Based Dose Response HTS to Identify Inhibitors of 5'UTR Stem-Loop Driven Prion Protein mRNA Translation in H4 Neuroglioblastoma Cells. [Related pubchem assays: 1827 (Project Summary), 1813 (Primary HTS)]; format: functional
[4] = inhibitors of SNCA 5'UTR-driven reporter translation, confirmation, H4 neuroglioma cells, luminescence (AID 1988); format: functional, cell-based
Paired box protein Pax-8 = Paired box protein Pax-8 (Homo sapiens, UniProt Q06710); experiment: inhibitors of PAX8-driven TPO luciferase reporter, dose response, RMG-I cells, cherry-pick (AID 687027); format: functional, cell-based;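 further: luciferase reporter driven by Pax8 target thyroperoxidase promoter measured by SteadyGlo luminescence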
Cytochrome P450 2D6 = Cytochrome P450 2D6 (Homo sapiens, UniProt P10635);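 further: CYP2D6 member of a cytochrome P450 panel assay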
[5] = inhibitors of intracellular T. cruzi replication, confirmation, NIH3T3 host cells, beta-gal luminescence (AID 2044); format: functional, cell-based;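 further: intracellular parasites grown in NIH/3T3 mouse fibroblasts as host cells; luminescent beta-galactosidase reporter signal from transgenic T. cruzi replicating inside host cells; inhibitors lower the luminescence signal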
[6] = cytotoxicity toward NIH3T3 fibroblasts, dose response, counter-screen, cell-based, ATP luminescence, mouse fibroblasts (AID 2010); format: functional;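 further: cells exposed to compound for about 90 hours before reading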
[7] = system: Streptococcus sp. 'group A'; experiment: growth inhibition of control SK(-) GAS strain, dose response, counter-screen for streptokinase expression inhibitor project, luminescence, kanamycin, BacTiterGlo, confirmation (AID 1900); format: functional, organism-based
Streptococcus = experiment: Group A Streptococcus viability loss, dose response, counter-screen for streptokinase expression inhibitor project, luminescence, BacTiterGlo (AID 1915); format: functional, organism-based;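 further: potency for reduction of bacterial viability or growth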
Streptokinase A = target: T2, Streptokinase A (Streptococcus pyogenes serotype M1, UniProt P10520); experiment: S. pyogenes streptokinase expression inhibitors, potency, dose response, plasminogen activation absorbance, OD405 (AID 1914); format: functional, Streptococcus pyogenes M1 GAS;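 further: secreted streptokinase activity via plasminogen activation per viability signal from cell pellet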
T2 sequence (P10520 whole entry): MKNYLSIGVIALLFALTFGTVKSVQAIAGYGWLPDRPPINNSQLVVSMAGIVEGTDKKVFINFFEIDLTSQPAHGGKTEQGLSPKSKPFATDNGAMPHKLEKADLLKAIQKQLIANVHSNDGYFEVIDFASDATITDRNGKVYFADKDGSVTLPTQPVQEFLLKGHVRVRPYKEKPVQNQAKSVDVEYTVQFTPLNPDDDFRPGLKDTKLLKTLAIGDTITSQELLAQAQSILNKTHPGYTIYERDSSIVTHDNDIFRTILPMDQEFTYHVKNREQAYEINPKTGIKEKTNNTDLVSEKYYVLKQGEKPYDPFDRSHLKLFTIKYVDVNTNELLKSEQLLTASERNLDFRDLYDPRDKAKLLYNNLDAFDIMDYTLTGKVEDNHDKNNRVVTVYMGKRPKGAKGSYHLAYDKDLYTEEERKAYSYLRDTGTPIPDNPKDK

[8] = Shn3 3'UTR reporter inhibitors, dose response, cell-based, Clone20 osteoblasts, firefly luciferase, cherry-picked (AID 624132); format: functional;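 further: firefly luciferase luminescence from reporter carrying the Shn3 3'UTR in osteoblasts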
[9] = target: Luciferin 4-monooxygenase (Photinus pyralis, UniProt P08659); experiment: firefly luciferase enzyme inhibitors, dose response, biochemical, luminescence (AID 1891)
[10] = Luminescence Cell-Based Dose Confirmation HTS to Identify Inhibitors of Platelet Dense Granule Release. [Related pubchem assays: 1663 (Primary HTS), 1678 (Summary of Project)]; format: functional
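Wherever IC50 is given: confirmatory concentration-response retest of ultra-high-throughput screening hits for modulation of myocardial damage; cell death induced by hydrogen peroxide oxidative stress; compound pretreatment for 60 min then peroxide exposure for 2 h; potency is for protecting the cells against peroxide damage rather than for killing them.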

Sequence of Cytochrome P450 3A4 (P08684 whole entry): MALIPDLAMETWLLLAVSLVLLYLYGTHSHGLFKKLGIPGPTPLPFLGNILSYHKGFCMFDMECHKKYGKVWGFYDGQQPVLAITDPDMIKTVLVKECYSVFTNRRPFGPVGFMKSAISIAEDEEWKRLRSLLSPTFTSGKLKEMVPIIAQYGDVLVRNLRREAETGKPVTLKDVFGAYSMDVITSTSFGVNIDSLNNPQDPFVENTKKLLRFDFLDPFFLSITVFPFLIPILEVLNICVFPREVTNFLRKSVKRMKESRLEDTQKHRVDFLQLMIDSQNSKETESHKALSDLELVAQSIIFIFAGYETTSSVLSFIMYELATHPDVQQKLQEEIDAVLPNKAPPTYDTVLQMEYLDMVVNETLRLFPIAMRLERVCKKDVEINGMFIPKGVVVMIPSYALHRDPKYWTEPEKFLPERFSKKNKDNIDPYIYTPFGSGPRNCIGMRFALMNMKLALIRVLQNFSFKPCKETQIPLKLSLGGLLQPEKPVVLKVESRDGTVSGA
Sequence of Paired box protein Pax-8 (Q06710 whole entry): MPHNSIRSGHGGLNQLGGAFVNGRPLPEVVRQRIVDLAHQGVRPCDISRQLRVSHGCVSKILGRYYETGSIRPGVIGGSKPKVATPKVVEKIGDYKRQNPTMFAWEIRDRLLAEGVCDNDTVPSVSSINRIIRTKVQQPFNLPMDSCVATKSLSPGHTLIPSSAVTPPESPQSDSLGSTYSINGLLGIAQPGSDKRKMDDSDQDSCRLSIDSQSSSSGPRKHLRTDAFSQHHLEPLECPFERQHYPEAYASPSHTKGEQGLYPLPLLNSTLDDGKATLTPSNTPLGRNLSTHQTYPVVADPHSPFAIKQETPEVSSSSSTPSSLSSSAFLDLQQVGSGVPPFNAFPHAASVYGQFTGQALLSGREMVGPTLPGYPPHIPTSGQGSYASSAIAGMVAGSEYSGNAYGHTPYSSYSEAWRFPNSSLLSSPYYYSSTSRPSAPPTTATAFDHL
Sequence of Cytochrome P450 2C9 (P11712 whole entry): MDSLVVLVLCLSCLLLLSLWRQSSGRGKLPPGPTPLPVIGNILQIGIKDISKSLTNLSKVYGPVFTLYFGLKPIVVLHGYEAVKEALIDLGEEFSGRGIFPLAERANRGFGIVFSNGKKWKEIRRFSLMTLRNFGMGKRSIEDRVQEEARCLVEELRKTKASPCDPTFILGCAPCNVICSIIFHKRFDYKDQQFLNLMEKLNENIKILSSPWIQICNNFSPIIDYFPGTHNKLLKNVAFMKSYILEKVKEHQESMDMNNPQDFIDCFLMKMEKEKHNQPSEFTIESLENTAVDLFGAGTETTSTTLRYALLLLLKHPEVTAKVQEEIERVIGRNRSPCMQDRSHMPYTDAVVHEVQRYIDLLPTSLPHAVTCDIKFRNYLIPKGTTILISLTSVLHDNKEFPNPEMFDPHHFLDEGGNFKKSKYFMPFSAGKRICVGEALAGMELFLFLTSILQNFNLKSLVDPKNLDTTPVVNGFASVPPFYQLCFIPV
Sequence of Cytochrome P450 2D6 (P10635 whole entry): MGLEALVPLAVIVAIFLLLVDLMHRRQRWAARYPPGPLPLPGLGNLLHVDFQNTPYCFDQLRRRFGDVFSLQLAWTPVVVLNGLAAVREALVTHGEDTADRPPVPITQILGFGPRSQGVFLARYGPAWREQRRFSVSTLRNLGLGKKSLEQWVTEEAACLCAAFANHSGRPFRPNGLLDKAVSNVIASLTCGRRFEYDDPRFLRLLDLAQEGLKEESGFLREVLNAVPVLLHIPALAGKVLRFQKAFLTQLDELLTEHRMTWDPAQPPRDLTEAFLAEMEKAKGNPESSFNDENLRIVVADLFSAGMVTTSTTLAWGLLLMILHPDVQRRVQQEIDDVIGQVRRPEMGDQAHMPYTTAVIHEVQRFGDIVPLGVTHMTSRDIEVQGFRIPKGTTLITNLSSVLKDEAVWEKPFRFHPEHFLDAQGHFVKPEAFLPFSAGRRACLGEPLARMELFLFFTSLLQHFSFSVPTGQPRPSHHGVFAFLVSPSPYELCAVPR
Sequence of Luciferin 4-monooxygenase (P08659 whole entry): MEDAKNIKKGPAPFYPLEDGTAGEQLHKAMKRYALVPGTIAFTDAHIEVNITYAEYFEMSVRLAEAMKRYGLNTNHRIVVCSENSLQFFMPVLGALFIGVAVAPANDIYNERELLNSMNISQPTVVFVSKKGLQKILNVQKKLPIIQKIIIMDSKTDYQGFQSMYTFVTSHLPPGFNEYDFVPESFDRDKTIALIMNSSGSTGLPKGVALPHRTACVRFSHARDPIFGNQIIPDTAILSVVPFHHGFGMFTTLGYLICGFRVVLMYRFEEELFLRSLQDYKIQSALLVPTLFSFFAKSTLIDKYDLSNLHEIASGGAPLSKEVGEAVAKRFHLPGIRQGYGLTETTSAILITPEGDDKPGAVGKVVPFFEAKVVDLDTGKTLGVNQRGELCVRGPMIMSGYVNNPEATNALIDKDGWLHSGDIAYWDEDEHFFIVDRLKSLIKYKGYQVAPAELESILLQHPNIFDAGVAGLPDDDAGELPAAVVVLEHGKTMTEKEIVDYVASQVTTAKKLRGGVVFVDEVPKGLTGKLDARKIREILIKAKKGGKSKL

## C/C(=N\NC(=S)Nc1ccc(F)cc1)C1CC1
Cytochrome P450 3A4
  AC50: 14.1 µM (inconclusive)

## CCN1CCc2c(sc(NC(=O)c3ccc(S(=O)(=O)N4CCCCCC4)cc3)c2C(=O)NC)C1
[1]
  AC50: 16.6 µM (active)

## O=C(c1ccco1)N1CCC2(CCCN(Cc3ccccc3)C2)CC1
Cytochrome P450 3A4
  AC50: 12.6 µM (inconclusive)

## O=C(NCC1CCCO1)c1onc(CSc2ccccc2F)c1C(=O)O (configuration not stated)
Cytochrome P450 2C9
  AC50: 6.31 µM (inconclusive)
Cytochrome P450 3A4
  AC50: 25.1 µM (inconclusive)

## COCCn1ccc2c(OCC(=O)Nc3ccccc3OC)cccc2c1=O
H9c2
  IC50: > 79 µM (inactive)

## COc1ccc(OC)c(C(=O)/C=C/c2cccnc2)c1
Vero
  CC50: 17 µM (active)

## COc1cc(-c2cc3nc4ccccc4n3c(N)c2C#N)cc(OC)c1OC
[2]
  EC50: 17.2 µM (active)
[3]
  EC50: 16.4 µM (active)
[4]
  EC50: > 120 µM (not active)

## Cc1ccc(C(=O)N/C(=C\c2ccc(-c3cccc([N+](=O)[O-])c3)o2)C(=O)NCCCN2CCOCC2)cc1
Vero
  CC50: > 25 µM (active)

## O=C(CCCN1C(=O)/C(=C/c2ccccc2OC(F)F)SC1=S)Nc1cccnc1
Vero
  CC50: 8.53 µM (active)
Paired box protein Pax-8
  AC50: 7.19 µM (active)

## O=C1NC(=O)C(=CNc2ccccc2[N+](=O)[O-])C(=O)N1
[2]
  EC50: > 120 µM (not active)
[3]
  EC50: 20.7 µM (active)
[4]
  EC50: > 120 µM (not active)

## COc1cccc(-c2nn3c(-c4ccco4)nnc3s2)c1
H9c2
  IC50: > 79 µM (inactive)

## C[C@@H]1CCCCO[C@H](CN(C)S(=O)(=O)c2cccs2)[C@H](C)CN([C@@H](C)CO)C(=O)c2cc(NC(=O)CCC(F)(F)F)ccc2O1
Paired box protein Pax-8
  AC50: 27.6 µM (active)

## O=C1NC(=S)NC(=O)C1=Cc1c[nH]c2ccccc12
Vero
  CC50: > 25 µM (active)

## COc1ccc(N(Cc2cc3cc(OC)ccc3nc2O)C(=O)c2cccnc2)cc1
H9c2
  IC50: > 79 µM (inactive)

## COC(=O)c1ccccc1NC(=O)c1ccc2nccnc2c1
H9c2
  IC50: 13.3 µM (active)

## COc1cc2cc3c4cc(OC)c(OC)cc4cc[n+]3c(C)c2cc1OC
Cytochrome P450 3A4
  AC50: 10 µM (inconclusive)

## CCOC(=O)CC1(C)NC(C(=O)O)C(C)(C)S1 (configuration not stated)
Vero
  CC50: > 25 µM (active)

## CCOC(=O)CCCc1c[nH]c2ccccc12
Cytochrome P450 3A4
  AC50: 31.6 µM (inconclusive)

## COc1ccccc1-c1cc(NC=O)c2ncc(-c3cccc(C(C)=O)c3)n2c1
H9c2
  IC50: 10 µM (active)

## CC(OC(=O)Cn1[nH]c(=O)c2ccccc2c1=O)C(=O)Nc1cccc(Cl)c1 (configuration not stated)
H9c2
  IC50: > 79 µM (inactive)

## c1ccc(C[n+]2cccc3c4ccccc4ccc32)cc1
[1]
  AC50: 3.41 µM (active)

## COc1ccc(CCNC(=O)C(=O)NCC2CCCN2S(=O)(=O)c2ccccc2)cc1OC (configuration not stated)
H9c2
  IC50: > 79 µM (inactive)

## COc1ccccc1-c1nc(Nc2ccncc2)c2ccccc2n1
Cytochrome P450 3A4
  AC50: 3.16 µM (inconclusive)
Cytochrome P450 2D6
  AC50: 25.1 µM (inconclusive)

## COc1cc(OC)cc(C(=O)Nc2ccc(-c3nc4ccccc4o3)cc2)c1
[5]
  EC50: 1.06 µM (active)
[6]
  EC50: > 16 µM (not active)
H9c2
  IC50: > 79 µM (inactive)

## Nc1ncnc(N(c2ccccc2)C2CCCCC2)c1[N+](=O)[O-]
Cytochrome P450 3A4
  AC50: 6.31 µM (inconclusive)

## Oc1c(/C=N/c2cccc(C(F)(F)F)c2)cnn1-c1cccc(Cl)n1
Cytochrome P450 2C9
  AC50: 10 µM (inconclusive)
Cytochrome P450 3A4
  AC50: 25.1 µM (inconclusive)

## COc1ccc(/C=C/C(=O)NC(=S)NNC(=O)[C@H]2C[C@@H]2c2ccccc2)cc1OC
[7]
  EC50: 0.57 µM (active)
Streptococcus
  EC50: 20.4 µM (active)
Streptokinase A
  EC50: > 150 µM (not active)
Vero
  CC50: > 25 µM (active)

## Cn1cc(CN(CCO)Cc2cccs2)c(-c2cccc(Cl)c2)n1
[8]
  AC50: 3.25 µM (active)
[9]
  EC50: > 112 µM (not active)
[10]
  EC50: > 112 µM (not active)

## O=C1NC(c2cccs2)Nc2ccccc21 (configuration not stated)
H9c2
  IC50: 18.2 µM (active)

## COCCn1c(=O)cnc2cnc(Oc3ccc(OC)cc3)nc21
Cytochrome P450 3A4
  AC50: 15.8 µM (inconclusive)

## Cc1nn(C)c(C)c1/C=C(/C(=O)C(C)(C)C)n1cncn1
[3]
  EC50: > 120 µM (not active)
[4]
  EC50: > 120 µM (not active)
